{"source": "patent US20230233537A1", "about": "“Compositions and Kits of Parts Comprising N,N-Dimethyltryptamine and Harmine and Their Use in Therapy” (University of Zürich, priority 2020, published 2023)", "key": {"[1]": {"test": "aqueous solubility of DMT and harmine forms", "conditions": "for solubility: water, 25 °C"}, "[2]": {"test": "buccal / transmucosal absorption of DMT forms", "conditions": "in vivo"}, "[3]": {"test": "combined intranasal/buccal study (parenteral pharmahuasca): DMT and harmine concentrations in plasma", "conditions": "for bioavailability (area under the curve; AUC) compared to oral administration: DMT fumarate intranasal, harmine HCl buccal; for variation of peak plasma concentrations (cmax), extensive vs. poor metabolizers, factor: 150 mg buccal harmine HCl, up to 50 mg incremental intranasal DMT fumarate"}, "[4]": {"test": "local tolerability on nasal or oral mucosa (burning sensation)", "conditions": "for burning sensation on nasal application: intranasal"}, "[5]": {"target": "T1, monoamine oxidase B (MAO-B) (Homo sapiens, UniProt P27338)", "T1 sequence (P27338 1-520)": "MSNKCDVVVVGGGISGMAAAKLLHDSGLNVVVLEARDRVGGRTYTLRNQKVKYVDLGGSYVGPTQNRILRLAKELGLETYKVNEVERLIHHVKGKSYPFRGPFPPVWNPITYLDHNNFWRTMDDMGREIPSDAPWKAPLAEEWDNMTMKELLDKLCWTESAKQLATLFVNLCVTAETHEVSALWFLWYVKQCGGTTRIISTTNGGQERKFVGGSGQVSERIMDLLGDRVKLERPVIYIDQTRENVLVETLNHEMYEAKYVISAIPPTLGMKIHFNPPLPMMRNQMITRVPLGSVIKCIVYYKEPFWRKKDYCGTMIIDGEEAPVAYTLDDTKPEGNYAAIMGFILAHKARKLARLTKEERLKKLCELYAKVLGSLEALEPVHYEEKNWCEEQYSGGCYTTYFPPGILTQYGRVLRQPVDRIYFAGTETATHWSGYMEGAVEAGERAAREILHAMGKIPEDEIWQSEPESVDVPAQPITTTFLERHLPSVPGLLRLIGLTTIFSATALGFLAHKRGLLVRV", "conditions": "cited from earlier work"}, "[6]": {"target": "hepatic enzyme CYP2D6 (Homo sapiens, UniProt P10635)", "sequence (P10635 whole entry)": "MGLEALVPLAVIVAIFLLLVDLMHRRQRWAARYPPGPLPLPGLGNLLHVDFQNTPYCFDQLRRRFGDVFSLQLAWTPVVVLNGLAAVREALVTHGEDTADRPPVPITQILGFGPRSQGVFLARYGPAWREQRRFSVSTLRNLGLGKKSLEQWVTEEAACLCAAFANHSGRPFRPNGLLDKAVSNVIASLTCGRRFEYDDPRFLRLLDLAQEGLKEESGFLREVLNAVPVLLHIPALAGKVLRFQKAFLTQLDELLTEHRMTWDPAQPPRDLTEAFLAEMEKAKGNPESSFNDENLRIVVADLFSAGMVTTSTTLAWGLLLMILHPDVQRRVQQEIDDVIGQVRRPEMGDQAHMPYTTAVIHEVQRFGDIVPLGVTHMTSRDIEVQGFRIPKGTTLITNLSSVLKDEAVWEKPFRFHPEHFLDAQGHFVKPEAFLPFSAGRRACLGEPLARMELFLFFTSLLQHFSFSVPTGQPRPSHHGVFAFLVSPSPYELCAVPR", "conditions": "cited from earlier work"}, "[7]": {"target": "T2, monoamine oxidase A (MAO-A) (Homo sapiens, UniProt P21397)", "T2 sequence (P21397 1-527)": "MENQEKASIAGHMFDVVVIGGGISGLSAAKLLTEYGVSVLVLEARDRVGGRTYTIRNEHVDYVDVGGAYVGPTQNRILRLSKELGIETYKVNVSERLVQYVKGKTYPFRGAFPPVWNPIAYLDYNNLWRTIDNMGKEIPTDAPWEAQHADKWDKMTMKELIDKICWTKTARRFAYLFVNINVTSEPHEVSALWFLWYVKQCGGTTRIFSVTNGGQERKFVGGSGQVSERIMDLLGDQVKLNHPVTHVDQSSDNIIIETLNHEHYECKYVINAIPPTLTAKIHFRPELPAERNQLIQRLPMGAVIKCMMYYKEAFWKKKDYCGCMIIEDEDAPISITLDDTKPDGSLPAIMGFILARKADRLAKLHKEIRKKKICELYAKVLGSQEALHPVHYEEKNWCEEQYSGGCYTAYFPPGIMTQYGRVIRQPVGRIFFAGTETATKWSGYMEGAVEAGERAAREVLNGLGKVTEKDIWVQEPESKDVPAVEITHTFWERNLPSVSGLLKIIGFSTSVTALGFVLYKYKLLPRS", "conditions": "cited from earlier work"}, "[8]": {"test": "peroral pharmahuasca study: DMT and harmine concentrations in plasma", "conditions": "male, human, oral"}}, "data": [{"molecule": "CN(C)CCc1c[nH]c2ccccc12.O=C(O)/C=C/C(=O)O", "note": "[DMT fumarate, N,N-dimethyltryptamine fumarate]", "values": [{"measurement": "solubility (in words)", "setting": "[1]", "value": "high"}, {"measurement": "solubility", "setting": "[1]", "value": "> 35", "unit": "mg/mL"}, {"measurement": "transmucosal absorption", "setting": "[2]", "value": "efficient"}, {"measurement": "bioavailability (area under the curve; AUC) compared to oral administration", "setting": "[3]", "value": "substantially higher"}]}, {"molecule": "CN(C)CCc1c[nH]c2ccccc12", "note": "[DMT, N,N-Dimethyltryptamine]", "values": [{"measurement": "burning sensation when administered buccally", "setting": "[4]; buccal, basic corrosion of the oral mucosa", "value": "burning sensation"}, {"measurement": "variation of peak plasma concentrations (cmax), extensive vs. poor metabolizers, factor", "setting": "[3]", "value": "~2.3"}]}, {"molecule": "COc1ccc2c(c1)[nH]c1c(C)nccc12.Cl", "note": "[harmine HCl, Harmine hydrochloride]", "values": [{"measurement": "burning sensation on nasal application", "setting": "[4]", "value": "intense burning sensation"}, {"measurement": "solubility", "setting": "[1]", "value": "≤ 35", "unit": "mg/mL"}, {"measurement": "bioavailability (area under the curve; AUC) compared to oral administration", "setting": "[3]", "value": "substantially higher"}]}, {"molecule": "CC(=O)O.COc1ccc2c(c1)[nH]c1c(C)nccc12", "note": "[harmine acetate]", "values": [{"measurement": "burning sensation on nasal application", "setting": "[4]", "value": "intense burning sensation"}, {"measurement": "solubility", "setting": "[1]", "value": "≤ 35", "unit": "mg/mL"}]}, {"molecule": "COc1ccc2c(c1)[nH]c1c(C)nccc12.O=C(O)CC(O)(CC(=O)O)C(=O)O", "note": "[harmine citrate]", "values": [{"measurement": "burning sensation on nasal application", "setting": "[4]", "value": "intense burning sensation"}, {"measurement": "solubility", "setting": "[1]", "value": "≤ 35", "unit": "mg/mL"}]}, {"molecule": "COc1ccc2c(c1)[nH]c1c(C)nccc12.O=C(O)/C=C/C(=O)O", "note": "[harmine fumarate]", "values": [{"measurement": "burning sensation on nasal application", "setting": "[4]", "value": "intense burning sensation"}, {"measurement": "solubility", "setting": "[1]", "value": "≤ 35", "unit": "mg/mL"}]}, {"molecule": "COc1ccc2c(c1)[nH]c1c(C)nccc12.O=S(=O)(O)O", "note": "[harmine sulfate]", "values": [{"measurement": "burning sensation on nasal application", "setting": "[4]", "value": "intense burning sensation"}, {"measurement": "solubility", "setting": "[1]", "value": "≤ 35", "unit": "mg/mL"}]}, {"molecule": "COc1ccc2c(c1)[nH]c1c(C)nccc12", "note": "[harmine, 7-Methoxy-1-methyl-9H-pyrido[3,4-b]indol]", "values": [{"measurement": "solubility (in words)", "setting": "[1]", "value": "very low"}, {"measurement": "inhibition of MAO-B", "setting": "[5]", "value": "does not inhibit"}, {"measurement": "degradation by CYP2D6", "setting": "[6]", "value": "mainly degraded"}, {"measurement": "inhibition of MAO-A", "setting": "[7]", "value": "reversibly inhibits"}, {"measurement": "Tmax", "setting": "[8]", "value": "1 to 4.5", "unit": "h"}, {"measurement": "variation of peak plasma concentrations (cmax), extensive vs. poor metabolizers, factor", "setting": "[3]", "value": "~3.2"}]}]}
